In publication PMC9927415, “Tyrosine Kinase Inhibitors Display Potent Activity against Cryptosporidium parvum” (Microbiology Spectrum, 2022):

Assays:
Test in all cases: KINOMEscan competitive binding, whole panel
panel of 203 kinases [1] = biological target: T1, panel of 203 kinases (Homo sapiens, UniProt Q13555); conditions: 10 µM, n=1; kinase CAMK2G; read-out: Percent inhibition CAMK2G
T1 construct: purchased DiscoverX (KINOMEscan)
Procedure, shortened: (§1)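 Kinases were expressed as T7 bacteriophage fusions, and test compounds competed with immobilized ATP-site probe ligands for binding. Kinase remaining bound to the solid-support probe was quantified, and values are given as percentage inhibition.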

panel of 203 kinases [2] = biological target: T2, panel of 203 kinases (Homo sapiens, UniProt Q9P2K8, S808G); conditions: 10 µM, n=1; kinase GCN2(Kin.Dom.2,S808G); read-out: Percent inhibition GCN2(Kin.Dom.2,S808G)
T2 construct: purchased DiscoverX (KINOMEscan)
T2 sequence (Q9P2K8 whole entry S808G): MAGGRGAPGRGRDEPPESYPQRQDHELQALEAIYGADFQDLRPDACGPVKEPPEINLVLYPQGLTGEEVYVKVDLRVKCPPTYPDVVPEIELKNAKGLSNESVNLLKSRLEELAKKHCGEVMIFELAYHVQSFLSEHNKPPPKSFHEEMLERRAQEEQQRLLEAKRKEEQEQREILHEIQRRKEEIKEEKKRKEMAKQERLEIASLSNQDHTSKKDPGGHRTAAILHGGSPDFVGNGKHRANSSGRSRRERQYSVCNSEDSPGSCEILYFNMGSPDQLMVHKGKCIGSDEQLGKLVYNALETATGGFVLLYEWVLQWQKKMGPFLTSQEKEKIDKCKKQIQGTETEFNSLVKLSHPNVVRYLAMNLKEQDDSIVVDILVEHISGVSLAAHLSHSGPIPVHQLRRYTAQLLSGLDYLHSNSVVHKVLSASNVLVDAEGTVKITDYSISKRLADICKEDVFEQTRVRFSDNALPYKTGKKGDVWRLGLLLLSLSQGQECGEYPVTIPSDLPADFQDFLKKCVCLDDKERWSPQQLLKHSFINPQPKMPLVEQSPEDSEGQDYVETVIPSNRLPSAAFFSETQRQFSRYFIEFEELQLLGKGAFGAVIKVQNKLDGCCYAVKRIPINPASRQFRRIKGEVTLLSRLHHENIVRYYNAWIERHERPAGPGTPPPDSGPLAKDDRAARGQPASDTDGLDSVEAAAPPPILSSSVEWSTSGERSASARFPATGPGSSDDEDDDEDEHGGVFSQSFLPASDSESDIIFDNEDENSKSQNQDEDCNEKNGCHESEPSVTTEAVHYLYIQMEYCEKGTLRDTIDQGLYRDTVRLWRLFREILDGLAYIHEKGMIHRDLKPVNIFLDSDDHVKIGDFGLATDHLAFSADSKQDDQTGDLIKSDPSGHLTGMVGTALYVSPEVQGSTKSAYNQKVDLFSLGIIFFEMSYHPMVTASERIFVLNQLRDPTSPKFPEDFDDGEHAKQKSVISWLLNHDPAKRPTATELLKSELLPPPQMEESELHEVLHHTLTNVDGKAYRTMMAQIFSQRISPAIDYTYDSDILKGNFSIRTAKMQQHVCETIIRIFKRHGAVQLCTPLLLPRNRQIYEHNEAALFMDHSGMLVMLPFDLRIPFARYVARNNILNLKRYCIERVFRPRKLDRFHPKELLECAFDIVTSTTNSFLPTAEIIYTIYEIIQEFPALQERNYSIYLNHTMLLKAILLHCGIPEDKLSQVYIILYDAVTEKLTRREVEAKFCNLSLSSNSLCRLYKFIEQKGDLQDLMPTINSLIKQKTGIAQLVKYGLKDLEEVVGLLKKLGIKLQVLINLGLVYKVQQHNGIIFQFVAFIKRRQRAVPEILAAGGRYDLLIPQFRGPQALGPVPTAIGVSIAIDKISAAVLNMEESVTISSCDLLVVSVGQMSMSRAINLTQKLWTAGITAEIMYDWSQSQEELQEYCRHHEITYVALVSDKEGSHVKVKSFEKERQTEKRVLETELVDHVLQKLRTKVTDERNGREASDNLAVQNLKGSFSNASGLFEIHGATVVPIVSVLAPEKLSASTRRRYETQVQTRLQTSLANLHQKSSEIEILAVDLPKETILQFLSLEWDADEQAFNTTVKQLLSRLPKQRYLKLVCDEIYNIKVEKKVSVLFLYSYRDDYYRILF
Procedure, shortened: as §1

panel of 203 kinases [3] = biological target: T3, panel of 203 kinases (Homo sapiens, UniProt Q09013); conditions: 10 µM, n=1; kinase DMPK; read-out: Percent inhibition DMPK
T3 construct: purchased DiscoverX (KINOMEscan)
T3 sequence (Q09013 1-629): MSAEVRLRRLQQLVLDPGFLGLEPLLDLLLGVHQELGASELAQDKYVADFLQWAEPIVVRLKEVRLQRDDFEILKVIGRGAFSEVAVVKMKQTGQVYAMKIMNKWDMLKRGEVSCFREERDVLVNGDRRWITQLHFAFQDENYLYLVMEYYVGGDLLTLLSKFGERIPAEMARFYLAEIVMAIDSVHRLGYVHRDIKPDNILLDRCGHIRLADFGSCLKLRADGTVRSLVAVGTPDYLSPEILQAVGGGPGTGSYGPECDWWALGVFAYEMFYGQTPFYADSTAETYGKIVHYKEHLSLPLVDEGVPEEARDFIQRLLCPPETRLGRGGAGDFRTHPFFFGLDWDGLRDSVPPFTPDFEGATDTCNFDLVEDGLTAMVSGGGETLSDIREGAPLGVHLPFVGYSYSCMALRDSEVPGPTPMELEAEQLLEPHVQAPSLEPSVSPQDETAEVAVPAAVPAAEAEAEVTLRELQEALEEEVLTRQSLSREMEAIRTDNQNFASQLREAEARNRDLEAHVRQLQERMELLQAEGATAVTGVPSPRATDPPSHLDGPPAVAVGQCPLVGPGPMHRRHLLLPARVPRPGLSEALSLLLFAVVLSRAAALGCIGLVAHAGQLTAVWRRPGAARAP
Procedure, shortened: as §1

panel of 203 kinases [4] = biological target: T4, panel of 203 kinases (Homo sapiens, UniProt Q9Y4K4); conditions: 10 µM, n=1; kinase MAP4K5; read-out: Percent inhibition MAP4K5
T4 construct: purchased DiscoverX (KINOMEscan)
T4 sequence (Q9Y4K4 whole entry): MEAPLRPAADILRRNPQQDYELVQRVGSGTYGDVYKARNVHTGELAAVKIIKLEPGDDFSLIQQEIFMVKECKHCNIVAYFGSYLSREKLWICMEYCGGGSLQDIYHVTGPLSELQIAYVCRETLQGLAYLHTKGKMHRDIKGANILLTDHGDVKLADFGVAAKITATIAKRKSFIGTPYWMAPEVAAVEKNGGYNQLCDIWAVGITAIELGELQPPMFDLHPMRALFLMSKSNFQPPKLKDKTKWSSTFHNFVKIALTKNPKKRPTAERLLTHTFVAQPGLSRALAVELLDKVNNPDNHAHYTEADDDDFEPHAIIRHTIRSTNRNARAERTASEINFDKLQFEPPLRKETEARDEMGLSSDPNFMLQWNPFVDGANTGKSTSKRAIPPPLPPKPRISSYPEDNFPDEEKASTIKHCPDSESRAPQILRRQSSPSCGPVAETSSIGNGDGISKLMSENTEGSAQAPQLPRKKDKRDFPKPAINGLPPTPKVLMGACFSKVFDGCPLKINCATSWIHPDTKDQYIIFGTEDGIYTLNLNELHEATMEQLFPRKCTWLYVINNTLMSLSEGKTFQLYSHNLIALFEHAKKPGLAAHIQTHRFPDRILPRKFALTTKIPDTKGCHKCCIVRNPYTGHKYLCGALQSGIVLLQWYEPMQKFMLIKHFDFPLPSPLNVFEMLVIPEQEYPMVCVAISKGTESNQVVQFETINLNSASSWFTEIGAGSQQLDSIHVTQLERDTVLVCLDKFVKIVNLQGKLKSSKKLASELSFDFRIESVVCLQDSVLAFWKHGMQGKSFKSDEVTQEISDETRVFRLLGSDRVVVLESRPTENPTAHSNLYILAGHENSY
Procedure, shortened: as §1

panel of 203 kinases [5] = biological target: T5, panel of 203 kinases (Homo sapiens, UniProt Q9P0L2); conditions: 10 µM, n=1; kinase MARK1; read-out: Percent inhibition MARK1
T5 construct: purchased DiscoverX (KINOMEscan)
Procedure, shortened: as §1

panel of 203 kinases [6] = biological target: T6, panel of 203 kinases (Homo sapiens, UniProt Q16584); conditions: 10 µM, n=1; kinase MLK3; read-out: Percent inhibition MLK3
T6 construct: purchased DiscoverX (KINOMEscan)
Procedure, shortened: as §1

panel of 203 kinases [7] = biological target: T7, panel of 203 kinases (Homo sapiens, UniProt Q9P289); conditions: 10 µM, n=1; kinase MST4; read-out: Percent inhibition MST4
T7 construct: purchased DiscoverX (KINOMEscan)
Procedure, shortened: as §1

panel of 203 kinases [8] = biological target: T8, panel of 203 kinases (Homo sapiens, UniProt Q9UQB9); conditions: 10 µM, n=1; kinase AURKC; read-out: Percent inhibition AURKC
T8 construct: purchased DiscoverX (KINOMEscan)
T8 sequence (Q9UQB9 1-309): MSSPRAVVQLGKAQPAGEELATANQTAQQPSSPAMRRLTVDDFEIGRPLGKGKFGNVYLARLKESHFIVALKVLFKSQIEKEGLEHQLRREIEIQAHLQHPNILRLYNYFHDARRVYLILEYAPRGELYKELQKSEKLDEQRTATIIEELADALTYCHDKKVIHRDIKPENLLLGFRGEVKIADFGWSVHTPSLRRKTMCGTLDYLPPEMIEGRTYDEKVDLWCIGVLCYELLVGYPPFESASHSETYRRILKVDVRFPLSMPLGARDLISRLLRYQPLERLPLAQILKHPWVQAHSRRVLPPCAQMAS
Procedure, shortened: as §1

panel of 203 kinases [9] = biological target: T9, panel of 203 kinases (Homo sapiens, UniProt Q9Y6E0); conditions: 10 µM, n=1; kinase MST3; read-out: Percent inhibition MST3
T9 construct: purchased DiscoverX (KINOMEscan)
T9 sequence (Q9Y6E0 whole entry): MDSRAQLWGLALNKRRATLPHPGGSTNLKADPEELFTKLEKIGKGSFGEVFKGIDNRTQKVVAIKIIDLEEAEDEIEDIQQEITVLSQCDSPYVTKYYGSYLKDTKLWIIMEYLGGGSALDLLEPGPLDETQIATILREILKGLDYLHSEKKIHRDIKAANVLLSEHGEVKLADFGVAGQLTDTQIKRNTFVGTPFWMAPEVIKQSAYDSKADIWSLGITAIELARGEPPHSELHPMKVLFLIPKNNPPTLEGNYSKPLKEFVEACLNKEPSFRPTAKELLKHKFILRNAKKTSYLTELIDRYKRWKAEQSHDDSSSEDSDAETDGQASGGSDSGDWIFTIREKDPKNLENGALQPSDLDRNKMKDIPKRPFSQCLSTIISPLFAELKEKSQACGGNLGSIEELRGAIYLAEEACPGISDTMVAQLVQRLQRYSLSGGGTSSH
Procedure, shortened: as §1

panel of 203 kinases [10] = biological target: T10, panel of 203 kinases (Homo sapiens, UniProt P00519); conditions: 10 µM, n=1; kinase ABL1; read-out: Percent inhibition ABL1
T10 construct: purchased DiscoverX (KINOMEscan)
T10 sequence (P00519 whole entry): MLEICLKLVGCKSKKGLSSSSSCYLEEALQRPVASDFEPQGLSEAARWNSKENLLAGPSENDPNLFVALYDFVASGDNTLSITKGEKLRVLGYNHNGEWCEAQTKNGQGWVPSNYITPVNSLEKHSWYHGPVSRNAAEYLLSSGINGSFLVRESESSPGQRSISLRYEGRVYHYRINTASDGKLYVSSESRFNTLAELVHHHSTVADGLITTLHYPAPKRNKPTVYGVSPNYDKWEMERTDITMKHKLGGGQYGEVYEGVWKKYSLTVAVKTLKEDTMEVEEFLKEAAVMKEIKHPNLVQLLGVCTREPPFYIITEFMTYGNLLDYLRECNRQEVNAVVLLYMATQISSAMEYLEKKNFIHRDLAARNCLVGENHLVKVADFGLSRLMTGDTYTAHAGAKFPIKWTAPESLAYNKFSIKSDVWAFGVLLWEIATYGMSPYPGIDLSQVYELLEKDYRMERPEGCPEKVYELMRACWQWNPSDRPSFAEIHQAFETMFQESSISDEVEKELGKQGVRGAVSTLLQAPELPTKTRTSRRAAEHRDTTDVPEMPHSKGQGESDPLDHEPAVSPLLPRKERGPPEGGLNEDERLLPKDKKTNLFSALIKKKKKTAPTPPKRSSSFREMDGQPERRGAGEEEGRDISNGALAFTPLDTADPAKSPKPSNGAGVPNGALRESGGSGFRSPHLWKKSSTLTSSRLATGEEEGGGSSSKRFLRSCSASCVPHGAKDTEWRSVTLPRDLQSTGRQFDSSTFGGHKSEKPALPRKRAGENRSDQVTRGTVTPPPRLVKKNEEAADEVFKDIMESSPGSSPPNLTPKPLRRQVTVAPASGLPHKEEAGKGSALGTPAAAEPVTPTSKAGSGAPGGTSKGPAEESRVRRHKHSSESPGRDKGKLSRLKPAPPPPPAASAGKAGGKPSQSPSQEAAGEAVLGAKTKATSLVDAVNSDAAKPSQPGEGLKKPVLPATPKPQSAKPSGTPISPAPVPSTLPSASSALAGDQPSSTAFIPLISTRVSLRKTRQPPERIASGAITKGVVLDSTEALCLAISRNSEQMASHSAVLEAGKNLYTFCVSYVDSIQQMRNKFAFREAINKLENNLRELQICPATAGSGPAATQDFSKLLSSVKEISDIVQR
Procedure, shortened: as §1

panel of 203 kinases [11] = biological target: T11, panel of 203 kinases (Homo sapiens, UniProt P06239); conditions: 10 µM, n=1; kinase LCK; read-out: Percent inhibition LCK
T11 construct: purchased DiscoverX (KINOMEscan)
Procedure, shortened: as §1

panel of 203 kinases [12] = biological target: T12, panel of 203 kinases (Homo sapiens, UniProt Q13043); conditions: 10 µM, n=1; kinase MST1; read-out: Percent inhibition MST1
T12 construct: purchased DiscoverX (KINOMEscan)
T12 sequence (Q13043 1-487): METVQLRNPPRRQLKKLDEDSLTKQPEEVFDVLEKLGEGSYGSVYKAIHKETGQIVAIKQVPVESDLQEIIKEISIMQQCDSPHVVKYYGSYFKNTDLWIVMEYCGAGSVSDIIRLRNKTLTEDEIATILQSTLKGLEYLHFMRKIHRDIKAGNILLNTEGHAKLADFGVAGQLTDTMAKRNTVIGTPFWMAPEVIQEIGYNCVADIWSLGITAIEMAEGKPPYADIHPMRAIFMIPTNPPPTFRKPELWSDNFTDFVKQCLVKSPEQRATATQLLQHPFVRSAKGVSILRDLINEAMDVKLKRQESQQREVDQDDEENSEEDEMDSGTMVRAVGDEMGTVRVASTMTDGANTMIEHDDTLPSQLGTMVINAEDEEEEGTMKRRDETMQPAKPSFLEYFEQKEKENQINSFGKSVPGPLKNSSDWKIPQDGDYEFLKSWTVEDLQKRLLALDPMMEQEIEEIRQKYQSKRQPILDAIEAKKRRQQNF
Procedure, shortened: as §1

panel of 203 kinases [13] = biological target: T13, panel of 203 kinases (Homo sapiens, UniProt Q8TDX7); conditions: 10 µM, n=1; kinase NEK7; read-out: Percent inhibition NEK7
T13 construct: purchased DiscoverX (KINOMEscan)
T13 sequence (Q8TDX7 whole entry): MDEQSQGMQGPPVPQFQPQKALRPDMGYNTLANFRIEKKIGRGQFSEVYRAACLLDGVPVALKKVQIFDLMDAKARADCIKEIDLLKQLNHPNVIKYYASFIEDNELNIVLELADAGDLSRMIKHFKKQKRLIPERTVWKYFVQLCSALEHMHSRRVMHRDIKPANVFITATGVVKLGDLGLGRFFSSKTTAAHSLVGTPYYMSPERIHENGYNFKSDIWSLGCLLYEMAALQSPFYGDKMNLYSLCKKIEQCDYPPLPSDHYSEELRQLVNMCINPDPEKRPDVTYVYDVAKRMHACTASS
Procedure, shortened: as §1

panel of 203 kinases [14] = biological target: T14, panel of 203 kinases (Homo sapiens, UniProt P51451); conditions: 10 µM, n=1; kinase BLK; read-out: Percent inhibition BLK
T14 construct: purchased DiscoverX (KINOMEscan)
Procedure, shortened: as §1

T1 sequence (Q13555 whole entry): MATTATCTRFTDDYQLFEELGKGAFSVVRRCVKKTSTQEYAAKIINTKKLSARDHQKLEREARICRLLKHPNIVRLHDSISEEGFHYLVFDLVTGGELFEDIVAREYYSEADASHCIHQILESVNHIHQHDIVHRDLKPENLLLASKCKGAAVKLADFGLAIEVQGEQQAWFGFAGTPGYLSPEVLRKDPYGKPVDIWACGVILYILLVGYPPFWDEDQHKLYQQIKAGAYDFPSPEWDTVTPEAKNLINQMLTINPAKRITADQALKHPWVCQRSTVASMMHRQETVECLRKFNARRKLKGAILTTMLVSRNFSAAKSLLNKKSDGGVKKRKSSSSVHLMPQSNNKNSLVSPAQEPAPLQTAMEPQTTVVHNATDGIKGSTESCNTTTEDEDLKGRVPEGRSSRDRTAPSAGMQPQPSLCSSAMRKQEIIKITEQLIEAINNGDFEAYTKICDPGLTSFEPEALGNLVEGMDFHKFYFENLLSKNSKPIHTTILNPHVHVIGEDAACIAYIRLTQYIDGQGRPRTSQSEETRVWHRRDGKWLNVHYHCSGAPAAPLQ

Structure (SMILES) | inhibition at 10 µM (panel of 203 kinases [1]) [%] | inhibition at 10 µM (panel of 203 kinases [2]) [%] | inhibition at 10 µM (panel of 203 kinases [3]) [%] | inhibition at 10 µM (panel of 203 kinases [4]) [%] | inhibition at 10 µM (panel of 203 kinases [5]) [%] | inhibition at 10 µM (panel of 203 kinases [6]) [%] | inhibition at 10 µM (panel of 203 kinases [7]) [%] | inhibition at 10 µM (panel of 203 kinases [8]) [%] | inhibition at 10 µM (panel of 203 kinases [9]) [%] | inhibition at 10 µM (panel of 203 kinases [10]) [%] | inhibition at 10 µM (panel of 203 kinases [11]) [%] | inhibition at 10 µM (panel of 203 kinases [12]) [%] | inhibition at 10 µM (panel of 203 kinases [13]) [%] | inhibition at 10 µM (panel of 203 kinases [14]) [%]
CN1CCN(c2ccc(Nc3nccc(-c4cnn5ncccc45)n3)cc2C#N)CC1 [Compound 1] | 97.7 | 99.7 | 0 | 93 | 85.3 | 0 | 92.8 | 96.5 | 99.4 | 87.3 | 97.6 | 99.3 | 100 | 84.8
COc1ccc(Nc2nccc(-c3cnn4ncccc34)n2)cc1 [Compound 2] | 75.2 | 98.2 | 0 | 0 | 0 | 75.5 | 0 | 91.1 | 72 | 0 | 0 | 0 | 100 | 63.8
Cc1ccc(O)cc1Nc1ccnc(Nc2cccc(C(N)=O)c2)n1 [Compound 3] | 0 | 0 | 0 | 94.6 | 0 | 69.4 | 0 | 0 | 0 | 99.7 | 99.6 | 0 | 0 | 99.6
Cc1ccc(O)cc1N(C)c1ccnc(Nc2cccc(S(N)(=O)=O)c2)n1 [Compound 4] | 0 | 0 | 0 | 99.1 | 0 | 81 | 0 | 0 | 0 | 99.8 | 99.8 | 0 | 0 | 99.4
Fc1cccc(COc2ccc(Nc3ncnc4c3CN(CCN3CCOCC3)CC4)cc2Cl)c1 [Compound 6] | 0 | 0 | 0 | 0 | 0 | 0 | 0 | 0 | 0 | 0 | 0 | 0 | 0 | 0
COc1cc(Nc2nccc(-c3sc(N)nc3-c3cccc(NC(=O)c4c(F)cccc4F)c3)n2)cc(OC)c1OC [Compound 7] | 0 | 99.9 | 87.5 | 99.9 | 79 | 99.8 | 89.2 | 85.7 | 93.8 | 99.7 | 99.5 | 97.4 | 91.3 | 99
C[C@@H](Oc1cc(-c2cnc3ccccn23)sc1C(N)=O)c1ccccc1Cl [Compound 8] | 0 | 86.6 | 0 | 82.7 | 0 | 0 | 0 | 96 | 0 | 0 | 0 | 0 | 0 | 0
c1ccc(COc2cccc(-c3ccnc4[nH]ccc34)c2)cc1 [Compound 9] | 0 | 0 | 0 | 0 | 0 | 0 | 0 | 0 | 0 | 0 | 0 | 0 | 0 | 0
Clc1ccc(Nc2ncc(-c3ccccc3)s2)cc1 [Compound 10] | 0 | 0 | 0 | 0 | 0 | 0 | 0 | 0 | 0 | 0 | 0 | 0 | 0 | 0
Nc1ncc2c(-c3ccncc3)c[nH]c2n1 [Compound 11] | 0 | 88.5 | 0 | 0 | 0 | 82.8 | 84 | 0 | 68.2 | 0 | 0 | 0 | 0 | 0
